Test results published in US10787436B2, “Inhibitors of cyclin-dependent kinase 7 (CDK7)” (Dana-Farber Cancer Institute, Inc., priority 2012, dated 2020).

Tests used:
[1] = test system: HL60; assay: Proliferation assay, CellTiter-Glo, 72 hour; assay type: cell-based; conditions: blood cancer cell line, read-out: Inhibition of proliferation, HL60
[2] = target: CDK1/cyclin B (Homo sapiens (Human), UniProt P06493); assay: Life Technologies Z'-Lyte kinase assay, CDK1; assay type: biochemical; conditions: read-out: Calculated IC50, CDK1/cyclin B
[3] = target: FLAG-CDK7 WT (Homo sapiens (Human), UniProt P50613); assay: In vitro kinase assay of FLAG-CDK7 immunoprecipitated from treated HCT116 cells; assay type: cell-based; conditions: HCT116 cells treated 4 hours, dose-response
Experimental: Following the treatment, the cells were washed 2-fold with cold PBS and then lysed in the following lysis buffer: 50 mM TrisHCl pH 8.0, 150 mM NaCl, 1% NP-40, 5 mM EDTA, 1 mM DTT, and protease/phosphatase cocktails. Following clearance, the lysates were treated with compound I-49 for pulldown (or CDK7 antibody for IP) overnight at 4° C. The lysates were then incubated with streptavidin agarose for pulldown (or Protein G Agarose for IP) for an additional 2-3 hours at 4° C. Agarose beads were washed 5 times with a lysis buffer and then boiled in 2X SDS for 10 minutes at 95° C.
In vitro kinase assays with immunoprecipitated proteins (or recombinant CAK complexes) were performed as follows. Kinase reactions were performed in 25 μL of final volume of reaction buffer (50 mM Hepes, pH 7.5, 150 mM NaCl, 10 mM MgCl2, 5% glycerol, 25 μM ATP, and 10 μCi of [γ-32P]ATP). Each reaction contained 1 μg of RNAP II. Incubation was at 30° C. for 30-45 min. Reactions were terminated by addition of 5 μL of 5×SDS-PAGE sample buffer and incubated at 95° C. for 5 min. Reactions were analyzed by SDS-PAGE, and the dried gel was exposed to film or PhosphorImager plate.
HCT116 cells were generated stably expressing FLAG-CDK7 WT and C312S. […] CDK7 was then immunoprecipitated (IP) from each combination treatment using a FLAG antibody, and washed IPs were subjected to in vitro kinase assays (FIG. 4F). […]

[4] = test system: hTERT-HME1; assay: Proliferation assay, CellTiter-Glo, 72 hour; assay type: cell-based; conditions: immortalized normal mammary epithelial cell line, read-out: Inhibition of proliferation, hTERT-HME1
[5] = test system: MCF7; assay: Proliferation assay, CellTiter-Glo, 72 hour; assay type: cell-based; conditions: breast cancer cell line, read-out: Inhibition of proliferation, MCF7
[6] = test system: retinal pigment epithelial (RPE1) cells; assay: Anti-proliferative assay, cell titer glo, 72 hours; assay type: cell-based, human
Experimental: At indicated time points, cellular lysates were harvested at the indicated times points and immunoblotted for the indicated proteins. […] Anti-proliferative effects were determined using cell titer glo analysis. […] Anti-proliferative effects were determined using alamarBlue® analysis. […] Anti-proliferative effects were determined using cell titer glo analysis. […] Dose: i.v. 1 mg/kg and p.o. 10 mg/kg.
Proliferation assays were conducted over a 48-72 hour time period (as noted). […] Cancer cell line profiling was performed over a 72 time period using Alamar Blue reagent.
CDK7 inhibitors display strong antiproflierative effects in leukemia and lymphoma cancer cells. However, a better definition of the breadth of their therapeutic potential in other cell types has not been reported. […] The rationale for examining such a large panel of human cancer cell lines is based on the fact that there is substantial genetic heterogeneity among human tumor cells, even with the same histological origins. In general, the data reveal a bimodal distribution with cell lines displaying exquisite sensitivity or apparent complete insensitivity to the compound.

[7] = test system: CDK7 occupancy; assay: CDK7 ChIP-seq in Jurkat cells; assay type: cell-based, human
Experimental: After the indicated treatment time, cells were crosslinked for 10 minutes at room temperature by the addition of one-tenth of the volume of 11% formaldehyde solution (11% formaldehyde, 50 mM Hepes (pH 7.3), 100 mM NaCl, 1 mM EDTA (pH 8.0), 0.5 mM EGTA (pH 8.0)) to the growth media followed by two washes with PBS. Following the final PBS wash, supernatant was aspirated, and the cell pellet was flash frozen in liquid nitrogen. Frozen crosslinked cells were stored at −80° C.
50 μl of Dynal magnetic beads (Sigma) were blocked with 0.5% BSA (w/v) in PBS. Magnetic beads were bound with 5 μg of the indicated antibody. Antibodies used are as follows: Total RNAP II (Rpb1 N-terminus): Santa Cruz sc-899; CDK7: Bethyl A300-405A. Crosslinked cells were lysed with lysis buffer 1 (50 mM Hepes (pH 7.3), 140 mM NaCl, 1 mM EDTA, 10% glycerol, 0.5% NP-40, and 0.25% Triton X-100) and washed with lysis buffer 2 (10 mM Tris-HCl (pH 8.0), 200 mM NaCl, 1 mM EDTA (pH 8.0) and 0.5 mM EGTA (pH 8.0)). […]
Illumina sequencing libraries were generated, and data were processed according to Lin et al., Cell (2012) 151:56-67. […] These criteria preserved only reads that mapped uniquely to the genome with 1 or fewer mismatches. […]

[8] = test system: MNNG-HOS Cl#5; assay: Proliferation assay, CellTiter-Glo, 72 hour; assay type: cell-based; conditions: osteosarcoma cell line, read-out: Inhibition of proliferation, MNNG-HOS Cl#5
[9] = test system: 143B; assay: Proliferation assay, CellTiter-Glo, 72 hour; assay type: cell-based; conditions: osteosarcoma cell line, read-out: Inhibition of proliferation, 143B
[10] = target: MLK3 (Homo sapiens (Human), UniProt Q16584); assay: Life Technologies LanthaScreen Eu kinase assay, MLK3; assay type: binding; conditions: read-out: Calculated IC50, MLK3
Chain of MLK3 (Q16584 whole entry): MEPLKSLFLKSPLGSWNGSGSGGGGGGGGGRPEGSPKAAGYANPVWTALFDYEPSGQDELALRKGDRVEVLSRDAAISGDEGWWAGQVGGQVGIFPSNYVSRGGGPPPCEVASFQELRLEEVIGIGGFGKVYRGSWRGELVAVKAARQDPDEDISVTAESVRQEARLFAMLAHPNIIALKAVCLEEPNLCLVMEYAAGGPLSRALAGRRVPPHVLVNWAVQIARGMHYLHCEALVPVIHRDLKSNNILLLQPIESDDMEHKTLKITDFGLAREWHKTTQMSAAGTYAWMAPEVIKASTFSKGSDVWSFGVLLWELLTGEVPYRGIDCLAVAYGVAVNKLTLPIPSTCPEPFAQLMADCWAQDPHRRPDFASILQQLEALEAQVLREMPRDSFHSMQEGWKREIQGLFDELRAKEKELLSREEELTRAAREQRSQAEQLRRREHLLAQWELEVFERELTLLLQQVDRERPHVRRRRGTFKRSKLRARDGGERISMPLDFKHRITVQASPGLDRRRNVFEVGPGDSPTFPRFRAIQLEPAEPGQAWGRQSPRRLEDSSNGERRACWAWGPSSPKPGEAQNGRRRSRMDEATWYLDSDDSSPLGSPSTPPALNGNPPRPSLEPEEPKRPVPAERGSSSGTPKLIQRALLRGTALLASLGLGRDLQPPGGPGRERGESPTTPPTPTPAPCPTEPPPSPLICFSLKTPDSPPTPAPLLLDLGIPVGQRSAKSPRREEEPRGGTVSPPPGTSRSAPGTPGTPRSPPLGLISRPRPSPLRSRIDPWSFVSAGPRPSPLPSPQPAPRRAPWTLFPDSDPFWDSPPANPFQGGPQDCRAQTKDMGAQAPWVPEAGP

Chain of FLAG-CDK7 WT (P50613 whole entry): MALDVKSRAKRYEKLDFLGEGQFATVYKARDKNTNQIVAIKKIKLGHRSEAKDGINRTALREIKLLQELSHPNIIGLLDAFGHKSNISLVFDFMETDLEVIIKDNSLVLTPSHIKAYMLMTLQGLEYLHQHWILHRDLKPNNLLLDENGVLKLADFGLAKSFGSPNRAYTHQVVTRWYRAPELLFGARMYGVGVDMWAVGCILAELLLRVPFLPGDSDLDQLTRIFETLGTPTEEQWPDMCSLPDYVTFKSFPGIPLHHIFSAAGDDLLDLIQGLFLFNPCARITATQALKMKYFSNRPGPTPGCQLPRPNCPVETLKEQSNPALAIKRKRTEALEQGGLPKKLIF
Chain of FLAG-CDK7 WT (P51946 whole entry partner): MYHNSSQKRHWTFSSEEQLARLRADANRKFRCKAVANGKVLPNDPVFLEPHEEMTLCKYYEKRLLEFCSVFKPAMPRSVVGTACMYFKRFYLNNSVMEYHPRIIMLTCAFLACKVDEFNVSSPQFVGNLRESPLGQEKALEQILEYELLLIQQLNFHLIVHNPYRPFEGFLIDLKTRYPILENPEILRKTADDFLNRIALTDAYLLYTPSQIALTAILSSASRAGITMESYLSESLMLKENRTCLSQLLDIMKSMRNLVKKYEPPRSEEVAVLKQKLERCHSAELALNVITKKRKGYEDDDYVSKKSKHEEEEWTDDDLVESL
Chain of FLAG-CDK7 WT (P51948 whole entry partner): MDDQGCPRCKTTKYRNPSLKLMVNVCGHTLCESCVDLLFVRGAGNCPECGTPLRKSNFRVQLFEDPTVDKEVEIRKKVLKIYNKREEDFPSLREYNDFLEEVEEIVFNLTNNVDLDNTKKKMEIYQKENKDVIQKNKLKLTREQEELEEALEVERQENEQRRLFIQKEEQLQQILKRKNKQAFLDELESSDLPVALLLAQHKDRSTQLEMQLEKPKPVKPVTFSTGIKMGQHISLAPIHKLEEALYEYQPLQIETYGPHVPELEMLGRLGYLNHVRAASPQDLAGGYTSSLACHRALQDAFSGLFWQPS
Chain of CDK1/cyclin B (P06493 whole entry): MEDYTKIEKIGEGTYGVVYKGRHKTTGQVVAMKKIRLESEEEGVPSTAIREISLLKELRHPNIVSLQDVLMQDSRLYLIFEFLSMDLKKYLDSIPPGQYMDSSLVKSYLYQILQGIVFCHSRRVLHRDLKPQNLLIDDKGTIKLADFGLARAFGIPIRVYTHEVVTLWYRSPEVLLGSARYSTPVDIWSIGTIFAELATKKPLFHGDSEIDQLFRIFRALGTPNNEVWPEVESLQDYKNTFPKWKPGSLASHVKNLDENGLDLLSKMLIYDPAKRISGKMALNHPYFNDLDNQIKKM
Chain of CDK1/cyclin B (P14635 whole entry partner): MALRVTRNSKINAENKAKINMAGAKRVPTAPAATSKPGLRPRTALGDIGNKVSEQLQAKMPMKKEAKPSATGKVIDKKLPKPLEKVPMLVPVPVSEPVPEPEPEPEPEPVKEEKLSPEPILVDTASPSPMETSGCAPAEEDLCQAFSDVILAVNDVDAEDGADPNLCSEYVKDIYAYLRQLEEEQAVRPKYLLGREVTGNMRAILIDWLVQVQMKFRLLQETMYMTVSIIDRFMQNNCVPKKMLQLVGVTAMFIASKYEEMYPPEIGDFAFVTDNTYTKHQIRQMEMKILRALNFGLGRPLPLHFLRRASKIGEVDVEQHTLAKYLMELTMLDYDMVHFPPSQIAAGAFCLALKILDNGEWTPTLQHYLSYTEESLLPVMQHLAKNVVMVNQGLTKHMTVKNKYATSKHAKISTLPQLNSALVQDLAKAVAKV

IC50 [1]: < 500 nM
IC50 [2]: 100 to 1000 nM
IC50 [5]: < 500 nM
IC50 [10]: < 100 nM
Compound: CN(C)C/C=C/C(=O)Nc1ccc(C(=O)Nc2cccc(Nc3ncc(Cl)c(-c4c[nH]c5ccccc45)n3)c2)cc1 [Formula I-23]
Inhibition of FLAG-CDK7 WT kinase activity [3]: inhibited FLAG-CDK7 WT in a dose-dependent fashion
IC50 [4]: < 500 nM
Sensitivity of untransformed RPE1 cells [6]: largely resistant
CDK7 occupancy (association with chromatin) [7]: did not disrupt CDK7 occupancy
IC50 [8]: 500 to 5000 nM
IC50 [9]: > 5000 nM
